The target of assay [1] is T1, His-GST-TVMV-hRIPK1(1-324) (Homo sapiens, UniProt Q13546).
T1 construct: The coding region of human RIPK1(1-324) flanked by NdeI site at 5′ end; made in house; host or cells: Spodoptera frugiperda (Sf9) insect cells, baculovirus
T1 sequence (Q13546 1-324): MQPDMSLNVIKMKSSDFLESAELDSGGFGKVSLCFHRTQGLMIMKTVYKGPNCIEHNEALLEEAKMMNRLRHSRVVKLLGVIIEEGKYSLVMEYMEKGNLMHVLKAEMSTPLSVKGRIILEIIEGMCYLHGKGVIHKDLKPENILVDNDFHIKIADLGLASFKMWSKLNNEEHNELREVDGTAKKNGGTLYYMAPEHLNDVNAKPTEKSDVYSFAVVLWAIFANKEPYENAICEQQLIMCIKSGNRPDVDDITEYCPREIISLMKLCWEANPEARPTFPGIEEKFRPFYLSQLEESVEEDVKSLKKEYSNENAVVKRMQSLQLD
Kind of assay: RIPK1 HTRF Binding Assay.

The subject of assay [2] is MLKL phosphorylation in HT29-L23 human colorectal adenocarcinoma cells. Briefly: MLKL Phosphorylation High-Content Assay. The assay is classed as cell-based. To be noted: Homo sapiens. Summed up:
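IC50 and Ymax obtained by 4-parameter logistic fitting of MLKL phosphorylation, measured as mean circ-ring average intensity ratio from high-content images. Staining used an anti-phospho-S358 MLKL antibody overnight at 4° C., following six-hour cell incubation at 37° C.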

The mark [3] stands for this setting: x marks IC50 class 20-200 nM, read-out: RIPK1 HTRF binding 20-200 nM.
Setting [4] is: x marks IC50 class 20-200 nM, read-out: pMLKL cell activity 20-200 nM.
Setting [5] is: x marks IC50 class <20 nM, read-out: RIPK1 HTRF binding <20 nM.
The mark [6] stands for this setting: x marks IC50 class <20 nM, read-out: pMLKL cell activity <20 nM.
Where [7] appears, read: x marks IC50 class >200 nM, read-out: pMLKL cell activity >200 nM.

The record followed here is US10913738B2 (BRISTOL-MYERS SQUIBB COMPANY, priority 2017, dated 2021).

Structures are written as SMILES. pIC50: −log10 of the molar value. Where two headings read alike, the source gives them in different places. Bounds are passed on as bounds.

`COc1ncc(-c2ccn3nc(N)nc3c2)cc1C(=O)NCc1ccccc1C(=O)N1CCC(F)(F)C1` [Example 377, 5-(2-amino-[1,2,4]triazolo[1,5-a]pyridin-7-yl)-N-(2-(3,3-difluoropyrrolidine-1-carbonyl)benzyl)-2-methoxynicotinamide]: the pIC50 in assay [1] (setting [3]) and in assay [2] (setting [4]) was 6.70 to 7.70 in each case.

Consider `Cc1ncc(-c2ccn3nc(N)nc3c2)cc1C(=O)NCc1ccccc1OC1CCC(C)C1` (stereo not drawn) [Example 237, 5-{2-amino-[1,2,4]triazolo[1,5-a]pyridin-7-yl}-2-methyl-N-({2-[(3-methylcyclopentyl)oxy]phenyl}methyl)pyridine-3-carboxamide], for which the pIC50 in assay [1] (setting [5]) and in assay [2] (setting [6]) was more than 7.70 each time.

Regarding `[2H]C([2H])([2H])Oc1nc(C)c(-c2ccn3nc(N)nc3c2)cc1C(=O)NC(C)c1ccccc1OC(F)(F)F` (single isomer, unassigned) [Example 98-1, 5-{2-amino-[1,2,4]triazolo[1,5-a]pyridin-7-yl}-2-(deutero)methoxy-6-methyl-N-{1-[2-(trifluoromethoxy)phenyl]ethyl}pyridine-3-carboxamide], the pIC50 in assay [1] (x marks IC50 class >200 nM, read-out: RIPK1 HTRF binding >200 nM) was less than 6.70; in assay [2] (setting [7]), less than 6.70.

On to `COc1ncc(-c2ccn3nc(N)nc3c2)cc1C(=O)NCc1ccc(F)cc1OCC1CC1` [Example 145, 5-{2-amino-[1,2,4]triazolo[1,5-a]pyridin-7-yl}-N-{[2-(cyclopropylmethoxy)-4-fluorophenyl]mehtyl}-2-methoxypyridine-3-carboxaamide], for which the results for the pIC50 in assay [1] (setting [5]) and in assay [2] (setting [4]) were more than 7.70 and 6.70 to 7.70, respectively.

As to `Cc1ncc(-c2ccn3nc(N)nc3c2)cc1C(=O)NCc1ncccc1OCC1CC1` [Example 238, 5-{2-amino-[1,2,4]triazolo[1,5-a]pyridin-7-yl}-N-{[3-(cyclopropylmethoxy)pyridin-2-yl]methyl}-2-methylpyridine-3-carboxamide], the pIC50 in assay [1] (setting [3]) and in assay [2] (setting [4]) was 6.70 to 7.70 in each case.

With `Cc1nc(C)c(-c2ccn3nc(N)nc3c2)cc1C(=O)NCc1cc(F)cc(F)c1OC1CCOC(C)C1` (stereo not drawn) [Example 296, 5-(2-amino-[1,2,4]triazolo[1,5-a]pyridin-7-yl)-N-(3,5-difluoro-2-((2-methyltetrahydro-2H-pyran-4-yl)oxy)benzyl)-2,6-dimethylnicotinamide], the pIC50 in assay [1] (setting [3]) and in assay [2] (setting [4]) was 6.70 to 7.70 in each case.

For the molecule `Cc1cnc(-c2ccn3nc(N)nc3c2)cc1C(=O)NCC[C@@H](O)c1ccc(Cl)cc1` [Example 395, (R)-2-(2-amino-[1,2,4]triazolo[1,5-a]pyridin-7-yl)-N-(3-(4-chlorophenyl)-3-hydroxypropyl)-5-methylisonicotinamide], the pIC50 in assay [1] (setting [5]) is more than 7.70; in assay [2] (setting [4]) it was 6.70 to 7.70.

Consider `Cc1cnc(-c2ccn3nc(N)nc3c2)nc1C(=O)NCC[C@H](O)c1ccc(Cl)cc1` [Example 410, (S)-2-(2-amino-[1,2,4]triazolo[1,5-a]pyridin-7-yl)-N-(3-(4-chlorophenyl)-3-hydroxypropyl)-5-methylpyrimidine-4-carboxamide], for which the pIC50 in assay [1] (setting [3]) and in assay [2] (setting [4]) was 6.70 to 7.70 throughout.

For the molecule `Cc1ncc(C(=O)NCc2cc(F)cc(F)c2OCC2CCCC2)cc1-c1ccn2nc(N)nc2c1` [Example 259, 5-{2-amino-[1,2,4]triazolo[1,5-a]pyridin-7-yl}-N-{[2-(cylcopentylmethoxy)-3,5-difluorophenyl]methyl}-6-methylpyridine-3-carboxamide], the results for the pIC50 in assay [1] (setting [5]) and in assay [2] (setting [4]) were more than 7.70 and 6.70 to 7.70, respectively.

For `COc1nc(C)c(-c2ccn3nc(N)nc3c2)cc1C(=O)NCc1ccccc1COC(C)C` [Example 330, 5-(2-amino-[1,2,4]triazolo[1,5-a]pyridin-7-yl)-N-(2-(isopropoxymethyl)benzyl)-2-methoxy-6-methylnicotinamide], the pIC50 in assay [1] (setting [5]) was more than 7.70; in assay [2] (setting [4]), 6.70 to 7.70.

On to `CCc1ncc(-c2ccn3nc(N)nc3c2)cc1C(=O)NCc1ccccc1Sc1ccccc1CO` [Example 61, 5-{2-Amino-[1,2,4]triazolo[1,5-a]pyridin-7-yl}-2-ethyl-N-[(2-{[2-(hydroxymethyl)phenyl]sulfanyl}phenyl)methyl]pyridine-3-carboxamide], for which the pIC50 in assay [1] (setting [5]) and in assay [2] (setting [6]) was more than 7.70 throughout.

In the case of `COc1ncc(-c2ccn3nc(N)nc3c2)cc1C(=O)NCc1ccccc1OC(C)C` [Example 144, 5-{2-amino-[1,2,4]triazolo[1,5-a]pyridin-7-yl}-2-methoxy-N-{[2-(propan-2-yloxy)phenyl]methyl}pyridine-3-carboxamide], the pIC50 in assay [1] (setting [5]) was more than 7.70; in assay [2] (setting [4]), 6.70 to 7.70.

On to `COc1ncc(-c2ccn3nc(N)nc3c2)cc1C(=O)NCc1cccc(OCC2CCC2)c1` [Example 46, 5-{2-Amino-[1,2,4]triazolo[1,5-a]pyridin-7-yl}-N-{[3-(cyclobutylmethoxy)phenyl]methyl}-2-methoxypyridine-3-carboxamide], for which the figures for the pIC50 in assay [1] (setting [3]) and in assay [2] (setting [7]) were 6.70 to 7.70 and less than 6.70, respectively.

As to `COc1ncc(-c2ccn3nc(N)nc3c2)cc1C(=O)NCc1cc(F)cc(F)c1OC(C)C` [Example 22, 5-{2-Amino-[1,2,4]triazolo[1,5-a]pyridin-7-yl}-N-{[3,5-difluoro-2-(propan-2-yloxy)phenyl]methyl}-2-methoxypyridine-3-carboxamide], the pIC50 in assay [1] (setting [5]) and in assay [2] (setting [6]) was more than 7.70 throughout.

On to `Cc1nc(C)c(-c2ccn3nc(N)nc3c2)cc1C(=O)NCc1ccccc1OCC(F)(F)F` [Example 294, 5-(2-amino-[1,2,4]triazolo[1,5-a]pyridin-7-yl)-2,6-dimethyl-N-(2-(2,2,2-trifluoroethoxy)benzyl)nicotinamide], for which the pIC50 in assay [1] (setting [3]) was 6.70 to 7.70; in assay [2] (setting [7]), less than 6.70.

As to `Cc1ncc(-c2ccn3nc(N)nc3c2)cc1NC(=O)c1cc(OC(F)(F)F)ccc1F` [Example 419, N-(5-(2-amino-[1,2,4]triazolo[1,5-a]pyridin-7-yl)-2-methylpyridin-3-yl)-2-fluoro-5-(trifluoromethoxy)benzamide], the pIC50 in assay [1] (setting [5]) was more than 7.70; in assay [2] (setting [7]), less than 6.70.

As for `COc1nc(C)c(-c2ccn3nc(N)nc3c2)cc1C(=O)NCc1cccc(F)c1CN1CCCC1` [Example 326, 5-(2-Amino-[1,2,4]triazolo[1,5-a]pyridin-7-yl)-N-(3-fluoro-2-(pyrrolidin-1-ylmethyl)benzyl)-2-methoxy-6-methylnicotinamide], the pIC50 in assay [1] (setting [3]) is 6.70 to 7.70; in assay [2] (setting [7]) it was less than 6.70.

Regarding `CC(CCNC(=O)c1ccnc(-c2ccn3nc(N)nc3c2)c1)c1ccccc1` (stereo not drawn) [Example 72, 2-{2-Amino-[1,2,4]triazolo[1,5-a]pyridin-7-yl}-N-(3-phenylbutyl)pyridine-4-carboxamide], the pIC50 in assay [1] (setting [3]) was 6.70 to 7.70; in assay [2] (setting [7]), less than 6.70.

As for `COc1ncc(-c2ccn3nc(N)nc3c2)cc1C(=O)NCc1ccccc1S(=O)(=O)N1CCCCCC1` [Example 111, 5-{2-amino-[1,2,4]triazolo[1,5-a]pyridin-7-yl}-N-{[2-(azepane-1-sulfonyl)phenyl]methyl}-2-methoxypyridine-3-carboxamide], the results for the pIC50 in assay [1] (setting [5]) and in assay [2] (setting [7]) were more than 7.70 and less than 6.70, respectively.

On to `COc1ncc(-c2ccn3nc(N)nc3c2)cc1C(=O)NCc1cccc(C(F)(F)F)c1` [Example 119, 5-{2-amino-[1,2,4]triazolo[1,5-a]pyridin-7-yl}-2-methoxy-N-{[3-(trifluoromethyl)phenyl]methyl}pyridine-3-carboxamide], for which the pIC50 was 6.70 to 7.70 in assay [1] (setting [3]) and less than 6.70 in assay [2] (setting [7]).

For the molecule `COc1ncc(-c2ccn3nc(N)nc3c2)cc1C(=O)N1CCC[C@H](Cc2ccc(F)cc2)C1` [Example 134, 7-{5-[(3R)-3-[(4-fluorophenyl)methyl]piperidine-1-carbonyl]-6-methoxypyridin-3-yl}-[1,2,4]triazolo[1,5-a]pyridin-2-amine], the pIC50 in assay [1] (setting [3]) is 6.70 to 7.70; in assay [2] (setting [6]), more than 7.70.

With `COc1ncc(-c2ccn3nc(N)nc3c2)cc1C(=O)N1CCOC(Cc2ccccc2)C1` (stereo not drawn) [Example 428, (5-(2-amino-[1,2,4]triazolo[1,5-a]pyridin-7-yl)-2-methoxypyridin-3-yl)(2-benzylmorpholino)methanone], the pIC50 was 6.70 to 7.70 in assay [1] (setting [3]) and less than 6.70 in assay [2] (setting [7]).

With `COc1nc(C)c(-c2ccn3nc(N)nc3c2)cc1C(=O)NC(C)c1cccc(OC(F)(F)F)c1` (stereo not drawn) [Example 223, 5-{2-amino-[1,2,4]triazolo[1,5-a]pyridin-7-yl}-2-methoxy-6-methyl-N-{1-[3-(trifluoromethoxy)phenyl]ethyl}pyridine-3-carboxamide], the results for the pIC50 in assay [1] (setting [5]) and in assay [2] (setting [4]) were more than 7.70 and 6.70 to 7.70, respectively.

As to `[2H]C([2H])([2H])[C@@H](NC(=O)c1cc(-c2ccn3nc(N)nc3c2)cnc1OC)c1cccc(OC(F)(F)F)c1` [Example 346, (R)-5-(2-amino-[1,2,4]triazolo[1,5-a]pyridin-7-yl)-2-methoxy-N-(1-(3-(trifluoromethoxy)phenyl)ethyl-2,2,2-d3)nicotinamide], the pIC50 was more than 7.70 in assay [1] (setting [5]) and 6.70 to 7.70 in assay [2] (setting [4]).
